# According to US10854312B2, “Selective peptide antagonists” (BIONIZ, LLC, priority 2013, dated 2020):
# No end group written: not given here.
# Assays:
# IL-17A and IL-17F = assay: Inhibition of IL-17 family members; details: no test described
# γc-cytokines = assay: Target cytokine spectrum within the γc-family; assay type: cell-based
# IL-6 = assay: T1165 cell proliferation assay, IL-6; assay type: cell-based
# Description: CTLL2 cells are cultured in the presence of 5 u/ml and 10 u/ml of IL-2 (FIG. 10A) and 2.5 ng/ml and 5 ng/ml of IL-15 (FIG. 10B) in the presence of increasing concentration of BNZ132-PEG-130. T1165 cells are cultured with 0.1 ng/ml of IL-6 (FIG. 10C) and increasing concentration of BNZ132-PEG-130. […] BNZ132-1 was conjugated to BNZ130 via a PEG24 linker. The name of the bi-antagonist peptide is BNZ132-PEG-130. FIG. 10A and FIG. 10B show the results of BNZ132-PEG-130 in IL-2 (FIG. 10A) and IL-15 (FIG. 10B) CTLL2 proliferation assay. Cells were washed and incubated with IL-2 (5 and 10 units/ml), IL-15 (2.5 and 5 ng/ml) in the presence or absence of BNZ132-PEG-130 (0.1-10 μM). Cells were then pulsed with the WST-1 reagent to measure the proliferative response for the next 6 hr (OD450). […] Cells are washed and incubated with IL-6 (0.1 ng/ml) in the presence or absence of BNZ132-PEG-130 (0.1-10 μM) for 24 hours. Cells were then pulsed with WST-1 reagent for the following 6 hr to measure OD450. The BNZ130-1 polypeptide as presented in Table 2, above, is tested for its activity in inhibiting IL-6 activity. T1165 cells that are dependent on human or mouse IL-6 for their growth in vitro are selected. The cell line is cultured in the absence of IL-6, In the presence of IL-6, in the presence of BNZ130-1, and in the presence of IL-6 and BNZ130-1.
substance,measurement,setting,value
BNZ17-1: inhibitory polypeptide SEQ ID NO: 144 of IL-17A and IL-17F target region fragments (Table 7) (YSRSTSPWRYHRDRDPNRYPSDLYHAKC),specific inhibition within the IL-17 family,IL-17A and IL-17F,specifically inhibits IL-17A and IL-17F to the exclusion of the remaining family members
"BNZ gamma: polypeptide SEQ ID NO: 130 (Table 6) of IL-15, IL-2 and IL-9 D-helix fragments; probably the same as BNZ132-1 (IKEFLQSFIHIVQSIINT)",γc-cytokines not inhibited,"γc-cytokines; IL-4, IL-7 and IL-21",does not exhibit inhibitory activity
same,γc-cytokines inhibited,"γc-cytokines; summary statements, BNZ132-2 and -3 data not shown","inhibitory activity against all of IL-2, IL-15 and IL-9"
LTHLIERSSRAVLQSLLRASRQ [BNZ130-1],antagonistic activity on T1165 proliferation in the presence of IL-6,"IL-6; Example 11, T1165 cells dependent on IL-6",dose-dependent antagonistic activity
same,effect on T1165 cell survival,"IL-6; Example 11, with or without IL-6",does not affect T1165 survival
